Assay results taken from US8067447B2, “Modulators of glucocorticoid receptor, AP-1, and/or NF-κB activity and use thereof” (Bristol-Myers Squibb Company, priority 2006, dated 2011).
Like-named read-outs stand apart in the source and are kept apart here.

Legend:
[1] = biological target: T1, human full-length glucocorticoid receptor (Homo sapiens, UniProt P04150); experiment: Glucocorticoid Receptor Binding Assay (II), fluorescence polarization competitor kit (Fluormone GS1); details: cell lysate with recombinant human full-length GR, 1 nM Fluormone GS1, FP
T1 construct: a cell lysate containing recombinantly expressed human full-length glucocorticoid receptor; purchased PanVera Co., Madison, Wis; P2816
T1 sequence (P04150 1-777): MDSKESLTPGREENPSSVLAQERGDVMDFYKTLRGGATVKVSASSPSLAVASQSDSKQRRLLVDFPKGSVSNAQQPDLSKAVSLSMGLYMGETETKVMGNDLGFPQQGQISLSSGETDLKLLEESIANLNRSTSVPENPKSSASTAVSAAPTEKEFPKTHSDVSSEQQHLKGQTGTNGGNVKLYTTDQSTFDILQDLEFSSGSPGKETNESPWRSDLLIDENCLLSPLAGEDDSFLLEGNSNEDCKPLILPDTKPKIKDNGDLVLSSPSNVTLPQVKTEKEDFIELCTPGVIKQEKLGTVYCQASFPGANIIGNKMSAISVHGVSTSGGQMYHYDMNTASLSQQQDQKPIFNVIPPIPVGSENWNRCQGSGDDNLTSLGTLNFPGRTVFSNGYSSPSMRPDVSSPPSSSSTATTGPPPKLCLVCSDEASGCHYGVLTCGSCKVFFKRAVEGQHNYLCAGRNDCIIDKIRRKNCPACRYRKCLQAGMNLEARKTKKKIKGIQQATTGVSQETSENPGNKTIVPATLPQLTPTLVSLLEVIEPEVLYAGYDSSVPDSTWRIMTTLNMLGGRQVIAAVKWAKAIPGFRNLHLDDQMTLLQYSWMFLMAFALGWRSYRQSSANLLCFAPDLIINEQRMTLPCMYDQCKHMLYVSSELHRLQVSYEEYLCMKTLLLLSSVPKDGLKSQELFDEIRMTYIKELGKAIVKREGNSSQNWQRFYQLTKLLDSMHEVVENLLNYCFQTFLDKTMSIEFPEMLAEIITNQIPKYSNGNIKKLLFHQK
In short: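 Recombinant full-length human GR in cell lysate competed against 1 nM fluorescent glucocorticoid tracer (Fluormone GS1) with or without test compound. Fluorescence polarization read after 1 h at room temperature.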

[2] = tested on: AP-1 induced transcriptional activity; experiment: Cellular Transrepressional Assay (AP-1 luciferase reporter in A549 cells, PMA-activated); assay type: cell-based; details: A549 cells with 7x AP-1 luciferase reporter, 10 ng/ml PMA, read-out: AP-1 (EC50, nM) (Cellular Transrepression Assay)
In short: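 Test molecules spanning 0.1 nM to 40 μM were co-incubated 7 h with 10 ng/ml PMA in A549 cells stably carrying a 7× AP-1-driven luciferase plasmid. Repression, as % reduction of PMA-alone luminescence measured 10 min after reagent addition, was curve-fitted to give EC50s.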

Row | Structure (SMILES) | Ki [1] | EC50 ([2]; Homo sapiens, A549, 7 h) | EC50 ([2]; 7 hours)
1 | CC(C)(CC(=O)Nc1nncs1)c1ccc2c(cnn2-c2ccc(F)cc2)c1 [Example 122, 3-(1-(4-fluorophenyl)-1H-indazol-5-yl)-3-methyl-N-(1,3,4-thiadiazol-2-yl)butanamide] | 2.3 nM | > 10000 nM | 
2 | CC(C)(C(=O)NC1CCCC1O)C(Cc1ccccc1)c1ccc2c(cnn2-c2ccc(F)cc2)c1 (single isomer, unassigned) [Example 124-isomerD] | 0.64 nM |  | 40 nM
3 | Cc1ccc(C(c2ccc3c(cnn3-c3ccc(F)cc3)c2)C(C)(C)C(=O)Nc2nccs2)cc1 (stereo not shown) [Example 42, 3-(1-(4-fluorophenyl)-1H-indazol-5-yl)-2,2-dimethyl-N-(thiazol-2-yl)-3-p-tolylpropanamide] | 1.9 nM | 3.9 nM | 
4 | CC(C)(C(=O)Nc1nncs1)C(c1ccccc1)c1ccc2c(cnn2-c2ccc(C(=O)O)cc2)c1 (stereo not shown) [Example 89, 4-(5-(3-(1,3,4-thiadiazol-2-ylamino)-2,2-dimethyl-3-oxo-1-phenylpropyl)-1H-indazol-1-yl)benzoic acid] | 27 nM | > 10000 nM | 
5 | CC(C)(C(=O)Nc1nncs1)[C@@H](c1ccccc1)c1ccc2c(cnn2-c2ccc(F)cc2NC(N)=O)c1 [Example 161, (3S)-3-(1-(4-Fluoro-2-ureidophenyl)-1H-indazol-5-yl)-2,2-dimethyl-3-phenyl-N-(1,3,4-thiadiazol-2-yl)propanamide] | 32 nM | 5000 nM | 
